In US4216142A, “Chromogenic substrates for the proteolytic enzymes” (Abbott Laboratories, priority 1978, dated 1980) one finds Km and kcat data, which are given here for 1 substance.

The subject of the assay is human thrombin. In words: kinetic analysis of chromogenic substrate hydrolysis by thrombin. It is filed as biochemical. As to conditions: substrate 0.1 M in 0.17 M Tris buffer, pH 7.4; human thrombin 0.63 mg/ml; 37° C.; monitored at 405 nm. On the procedure:
The enzyme and the substrate are mixed in a buffer solution, and the reaction is followed spectrophotometrically for 2 to 30 minutes. The concentration of substrate [S] is varied, whereas the enzyme concentration [E] is kept constant. If the extinction (OD) (=optical density) is plotted in a coordinate system as a function of time, a curve is obtained the tangent of which (difference in extinction per minute, Δ OD/minute, from which the quantity in μmoles of pNA/min(v) can be calculated) at time zero corresponds to the initial course of the hydrolysis. By means of this tangent the initial rate of the hydrolysis can be determined.
If l/v is plotted against l/[S], a Lineweaver-Burk diagram is obtained from which vmax and Km can be determined graphically. Thus Km and kcat can be determined.

For the substance “sarcosylprolylarginine-p-nitrophenylanilide hydrochloride [Sar-Pro-Arg-pNA.2HCl]”, the Km was found to be 920 µM and the kcat was 158 s⁻¹.

The term Km denotes the concentration of substrate that gives half-maximal velocity. Broadly, the kcat is the number of substrate molecules converted per active site and unit of time at saturation.
